How the values were obtained:
[1] = system: C57BL6Ksdb/db obese diabetic mouse dermal wounds; conditions: topical; Livant et al. (2000) J. Clin. Invest. 105: 1537-1545; cited from earlier work
[2] = system: C57BL6Ksdb/db obese diabetic mouse dermal wounds; assay: Dermal wound healing in obese diabetic mice, topical application; format: in vivo; conditions: FIG. 7
Text: X axis, days since wounding. Y axis, wound area, relative to the initial wound area (13 to 19 mm^2). Db/db: healing-impaired, homozygous db/db, obese diabetic mice; db/+: normally healing, heterozygous db/+, non-diabetic littermates. Mean wound areas are shown.
Peptides are further evaluated for their ability to stimulate the diabetic wound healing. The peptides are topically applied to duplicate dermal wounds in healing-impaired obese diabetic mice (Greenhalgh et al., (1990) Am. J. Pathol. 136: 1235-1246), according to published protocols (Livant et al., (2000) J. Clin. Invest. 105: 1537-1545). Wound closure times are determined in both treated and untreated mice. To confirm the importance of the cysteine switch residue, some wounds are treated with the C to S substituted peptides. To quantitate the extent of reepithelialization for several days wounding, wounds are excised, sectioned, stained, and examined microscopically. To evaluate the provisional matrix for indications of wound contraction and angiogenesis, the presence of activated fibroblasts, collagenous fibers, microvasculature, and wound macrophages is assessed in sectioned and stained wounds for several days following wounding as described (Livant et al., (2000) J. Clin. Invest. 105: 1537-1545). These assays are performed using peptides derived from MMP 1, MMP 2, MMP 7, and MMP 9.
Each treatment group consisted of 10 mice with duplicate, dermal wounds of 12.5 to 16.5 mm^2 made in the shoulder area. Complete methods were as described (Livant et al., (2000) J. Clin. Invest. 105: 1537-1545). Treated animal were treated with 10 μg switch (PRC) sequence from MMP2 (Ac-PRCGNPDVANY-NH2) (SEQ ID NO:3). Wound areas were measured by integration of digital images.

[3] = system: human neonatal fibroblasts; assay: SU-ECM in vitro invasion assay, human neonatal fibroblasts; format: cell-based; conditions: peptide 2, 6, 20, 60 ng/ml; 5% FCS; 4 hours on SU-ECM; FIG. 3
Text: (§1) About 1×10^5 human microvascular cells, neonatal fibroblasts, or undifferentiated human keratinocytes were suspended in medium containing 5% fetal calf serum (FCS), mixed with varying concentrations of the MMP 7 switch peptide, Ac-PRCGVPDVAEY-NH2 (Gaire et al., (1994) J. Biol. Chem. 269: 2032-2040), function-blocking anti human MMP 1 monoclonal antibody (Birkedal-Hansen et al., (1988) Biochemistry 27; 6751-6758), or total human IgG, and placed on the surfaces of SU-ECM in vitro invasion substrates. SU-ECM invasion substrates are made as described from sea urchin embryos, and contain a blastocoelic cavity enclosed by an intact basement membrane and associated extracellular matrix (Livant et al., (1995) Cancer Research 55, 5085-5093). After 4 hours of incubation (the time necessary to observe maximal invasion percentages), the invasion percentage in each assay was determined by microscopic examination of the SU-ECM invasion substrates and their associated cells at 400-fold magnification. Invasion percentages are the ratios of the numbers of cells located on the internal surfaces of SU-ECM to the total numbers of cells in contact with either the internal or the external surfaces of SU-ECM, and multiplied by 100.
(§2) Cell culture and SU-ECM invasion assays. […]

[4] = system: human microvascular cells; assay: SU-ECM in vitro invasion assay, human microvascular cells; format: cell-based; conditions: peptide 2, 6, 20, 60 ng/ml; 5% FCS; 4 hours on SU-ECM; FIG. 1
Text: as §1, §2

[5] = system: undifferentiated human keratinocytes; assay: SU-ECM in vitro invasion assay, human keratinocytes; format: cell-based; conditions: peptide 2, 6, 20, 60 ng/ml; 5% FCS; 4 hours on SU-ECM; FIG. 5
Text: as §1, §2

[6] = one topical treatment with 10 μg just after wounding

## Ac-PHSRN-NH2 (listed as Homo sapiens)
[1]
  stimulation of dermal wound healing in obese diabetic C57BL6Ksdb/db mice: potent topical agent for stimulating dermal wound healing

## Ac-PRCGNPDVANY-NH2 (listed as Homo sapiens) [PRC peptide]
[2]; [6]
  decrease of the time required for closure of all db/db wounds, relative to untreated db/db mice: 50%
  rapidity of closure of treated db/db wounds compared with db/+ non-diabetic mice: as rapid as that of db/+ non-diabetic mice
[2]; single topical application
  enhancement of db/db wound healing (wound area relative to the initial wound area): enhancement

## Ac-PRCGVPDVAEY-NH2 (listed as Homo sapiens) [MMP 7 switch peptide, MMP 7 prodomain cysteine switch peptide]
[3]
  induction of human neonatal fibroblast invasion (percent of fibroblasts invaded): induces dose-dependent invasion
[4]
  induction of human microvascular cell invasion (percent of cells invaded): induces dose-dependent invasion
[5]
  induction of human keratinocyte invasion (percent of keratinocytes invaded): induces dose-dependent invasion

— patent US7320783B2, “Methods and compositions for the enhancement of wound healing” (The Regents of the University of Michigan, priority 2002, dated 2008)
